Measurements taken from ChEMBL document CHEMBL5550160, “Leveraging a rationally designed veliparib-based anilide eliciting anti-leukemic effects for the design of pH-responsive polymer nanoformulation” (Eur J Med Chem, 2024).
Calls of active or inactive are those of the source. The rule behind the calls is not given here.

What was measured:
Histone deacetylase 1 = Histone deacetylase 1 (Homo sapiens, UniProt Q13547); assay: Inhibition of HDAC1 (unknown origin) using p53 residues 379 to 382 [RHKK(Ac)] as fluorogenic substrate assessed as residual activity at 1.37 x 10^-8M (reference value: 98.06%); settings: dose 1.37 10^-8M
Histone deacetylase 2 [1] = target: T1, Histone deacetylase 2 (Homo sapiens, UniProt Q92769); assay: Inhibition of HDAC2 (unknown origin) assessed as residual activity at 1.52 x 10^-9M (reference value: 99.81%); settings: dose 1.52 10^-9M
Histone deacetylase 2 [2] = target: T1, Histone deacetylase 2; assay: Inhibition of HDAC2 (unknown origin) assessed as residual activity at 5.08 x 10^-10M (reference value: 99.81%); settings: dose 5.08 10^-10M
Histone deacetylase 3 = Histone deacetylase 3 (Homo sapiens, UniProt O15379); assay: Inhibition of HDAC3 (unknown origin) using p53 residues 379 to 382 [RHKK(Ac)] as fluorogenic substrate assessed as residual activity at 4.12 x 10^-8M (reference value: 103.08%); settings: dose 4.12 10^-8M
[3] = target: Histone deacetylase 4 (Homo sapiens) (UniProt P56524); assay: Inhibition of HDAC4 (unknown origin) assessed as residual activity at 3.33 x 10^-6M (reference value: 98.90%); settings: dose 3.33 10^-6M
[4] = target: Histone deacetylase 4 (Homo sapiens) (UniProt P56524); assay: Inhibition of HDAC4 (unknown origin) assessed as residual activity at 1.1 x 10^-6M (reference value: 98.90%); settings: dose 1.1 10^-6M
[5] = target: Histone deacetylase 4 (Homo sapiens) (UniProt P56524); assay: Inhibition of HDAC4 (unknown origin) assessed as residual activity at 3.70 x 10^-7M (reference value: 98.90%); settings: dose 3.7 10^-7M
[6] = target: Histone deacetylase 4 (Homo sapiens) (UniProt P56524); assay: Inhibition of HDAC4 (unknown origin) assessed as residual activity at 1.23 x 10^-7M (reference value: 98.90%); settings: dose 1.23 10^-7M
[7] = target: T2, Protein deacetylase HDAC6 (Homo sapiens) (UniProt Q9UBN7); assay: Inhibition of HDAC6 (unknown origin) using p53 residues 379 to 382 [RHKK(Ac)] as fluorogenic substrate assessed as residual activity at 4.57 x 10^-9M (reference value: 101.06%); settings: dose 4.57 10^-9M
T2 sequence (whole entry): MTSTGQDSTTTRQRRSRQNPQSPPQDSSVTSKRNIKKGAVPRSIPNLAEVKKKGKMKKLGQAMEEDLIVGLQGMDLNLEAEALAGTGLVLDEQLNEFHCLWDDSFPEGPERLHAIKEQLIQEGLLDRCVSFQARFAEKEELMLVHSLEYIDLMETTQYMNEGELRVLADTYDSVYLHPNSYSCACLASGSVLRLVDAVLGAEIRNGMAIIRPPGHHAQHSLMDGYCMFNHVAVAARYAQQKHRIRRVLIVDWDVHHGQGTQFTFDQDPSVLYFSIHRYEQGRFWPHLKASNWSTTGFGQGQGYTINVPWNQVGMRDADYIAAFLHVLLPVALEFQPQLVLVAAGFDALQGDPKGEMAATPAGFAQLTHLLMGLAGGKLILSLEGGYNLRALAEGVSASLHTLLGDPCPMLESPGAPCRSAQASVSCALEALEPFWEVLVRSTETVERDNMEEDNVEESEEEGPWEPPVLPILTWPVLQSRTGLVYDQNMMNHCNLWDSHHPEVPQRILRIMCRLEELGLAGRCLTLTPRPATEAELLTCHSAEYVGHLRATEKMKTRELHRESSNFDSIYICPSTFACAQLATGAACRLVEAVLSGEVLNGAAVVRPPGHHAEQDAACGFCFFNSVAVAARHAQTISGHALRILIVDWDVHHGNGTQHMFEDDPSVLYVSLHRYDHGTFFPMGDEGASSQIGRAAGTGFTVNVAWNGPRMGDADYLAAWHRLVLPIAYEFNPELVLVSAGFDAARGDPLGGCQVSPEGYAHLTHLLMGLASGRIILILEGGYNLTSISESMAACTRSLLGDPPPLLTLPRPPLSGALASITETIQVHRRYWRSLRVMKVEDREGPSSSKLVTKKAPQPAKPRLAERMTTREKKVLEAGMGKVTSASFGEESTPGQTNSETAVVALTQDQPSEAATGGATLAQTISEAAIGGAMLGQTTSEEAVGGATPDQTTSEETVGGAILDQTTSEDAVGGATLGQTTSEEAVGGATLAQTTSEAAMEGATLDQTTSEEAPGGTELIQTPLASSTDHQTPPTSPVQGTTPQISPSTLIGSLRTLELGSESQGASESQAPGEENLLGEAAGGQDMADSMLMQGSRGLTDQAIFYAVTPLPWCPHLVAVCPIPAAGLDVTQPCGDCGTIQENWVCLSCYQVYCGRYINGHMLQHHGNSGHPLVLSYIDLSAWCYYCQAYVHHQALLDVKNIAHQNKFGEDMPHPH

[8] = target: T3, Histone deacetylase 8 (Homo sapiens) (UniProt Q9BY41); assay: Inhibition of HDAC8 (unknown origin) assessed as residual activity at 1.1 x 10^-6M (reference value: 100%); settings: dose 1.1 10^-6M
T3 sequence (whole entry): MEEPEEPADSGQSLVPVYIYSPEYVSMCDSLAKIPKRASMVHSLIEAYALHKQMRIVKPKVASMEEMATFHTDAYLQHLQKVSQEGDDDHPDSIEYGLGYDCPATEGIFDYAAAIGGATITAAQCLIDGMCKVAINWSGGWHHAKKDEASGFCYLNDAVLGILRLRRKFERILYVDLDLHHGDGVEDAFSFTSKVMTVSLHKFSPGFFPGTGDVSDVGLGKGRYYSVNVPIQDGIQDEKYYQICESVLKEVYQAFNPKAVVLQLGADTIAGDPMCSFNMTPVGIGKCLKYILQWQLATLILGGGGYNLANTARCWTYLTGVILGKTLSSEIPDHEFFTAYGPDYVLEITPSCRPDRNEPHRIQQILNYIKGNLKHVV

[9] = target: T3, Histone deacetylase 8 (Homo sapiens); assay: Inhibition of HDAC8 (unknown origin) assessed as residual activity at 4.57 x 10^-9M (reference value: 100%); settings: dose 4.57 10^-9M
HL-60 [10] = assay: Downregulation of HDAC1 protein expression in human HL-60 cells by Western blot analysis; type: functional, cell-based; settings: dose 0.2-5 µM
HL-60 [11] = assay: Induction of cell cycle arrest in G0/G1 phase in human HL-60 cells assessed as downregulation of AKT protein expression at 0.5 to 1 times IC50 by Western blot analysis; type: functional, cell-based
HL-60 [12] = assay: Induction of autophagy in human HL-60 cells assessed as increase in autophagic flux by measuring increase in red-stained cells at 0.5 to 1 times IC50 by acridine orange staining based microscopic analysis; type: functional, cell-based
HL-60 [13] = assay: Induction of apoptosis in human HL-60 cells assessed as cell shrinkage at 0.5 to 1 times IC50 by DAPI staining based microscopic analysis; type: functional

Histone deacetylase 4 (Homo sapiens), sequence (P56524 whole entry, the tested form may be a part): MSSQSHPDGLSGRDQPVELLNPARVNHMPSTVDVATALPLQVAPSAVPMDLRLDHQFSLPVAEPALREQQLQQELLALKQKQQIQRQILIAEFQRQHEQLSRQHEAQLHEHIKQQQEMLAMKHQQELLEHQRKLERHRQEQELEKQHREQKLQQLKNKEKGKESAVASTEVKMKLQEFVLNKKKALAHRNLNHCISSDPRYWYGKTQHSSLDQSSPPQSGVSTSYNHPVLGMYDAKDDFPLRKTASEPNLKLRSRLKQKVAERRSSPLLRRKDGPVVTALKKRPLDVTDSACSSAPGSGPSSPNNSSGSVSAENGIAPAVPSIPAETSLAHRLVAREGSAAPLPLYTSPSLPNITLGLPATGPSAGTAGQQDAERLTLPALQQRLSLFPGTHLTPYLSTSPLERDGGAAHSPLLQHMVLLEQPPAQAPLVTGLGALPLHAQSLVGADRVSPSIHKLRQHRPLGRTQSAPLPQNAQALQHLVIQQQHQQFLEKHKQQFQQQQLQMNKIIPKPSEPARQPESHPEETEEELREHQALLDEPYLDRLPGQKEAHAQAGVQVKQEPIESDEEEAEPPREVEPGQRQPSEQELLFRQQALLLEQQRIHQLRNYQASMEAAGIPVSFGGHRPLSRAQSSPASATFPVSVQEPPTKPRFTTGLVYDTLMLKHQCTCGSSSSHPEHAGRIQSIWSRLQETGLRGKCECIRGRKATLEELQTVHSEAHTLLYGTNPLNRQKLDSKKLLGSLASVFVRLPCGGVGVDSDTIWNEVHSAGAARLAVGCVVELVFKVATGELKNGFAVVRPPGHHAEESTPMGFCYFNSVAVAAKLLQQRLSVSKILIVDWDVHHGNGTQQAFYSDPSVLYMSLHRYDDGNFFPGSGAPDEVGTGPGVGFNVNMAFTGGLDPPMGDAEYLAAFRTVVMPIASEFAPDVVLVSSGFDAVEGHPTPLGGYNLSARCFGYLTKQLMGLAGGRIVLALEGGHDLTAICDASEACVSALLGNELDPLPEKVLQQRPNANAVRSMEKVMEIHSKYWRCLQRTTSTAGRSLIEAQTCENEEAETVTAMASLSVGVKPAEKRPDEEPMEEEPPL
T1 sequence (Q92769 whole entry): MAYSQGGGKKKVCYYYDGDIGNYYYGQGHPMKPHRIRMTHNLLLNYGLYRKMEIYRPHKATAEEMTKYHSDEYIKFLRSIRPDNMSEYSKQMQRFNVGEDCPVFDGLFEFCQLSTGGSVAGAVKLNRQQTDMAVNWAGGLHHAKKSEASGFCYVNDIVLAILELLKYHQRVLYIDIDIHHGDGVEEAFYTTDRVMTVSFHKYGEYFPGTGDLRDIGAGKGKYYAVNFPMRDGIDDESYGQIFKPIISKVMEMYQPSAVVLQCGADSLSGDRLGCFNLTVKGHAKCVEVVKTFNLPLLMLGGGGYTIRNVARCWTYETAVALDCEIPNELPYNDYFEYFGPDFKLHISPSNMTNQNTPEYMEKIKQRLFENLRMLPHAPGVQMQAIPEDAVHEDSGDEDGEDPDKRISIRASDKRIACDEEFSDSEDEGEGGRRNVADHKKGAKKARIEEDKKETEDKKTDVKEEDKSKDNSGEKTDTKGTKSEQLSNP
Histone deacetylase 3, sequence (O15379 whole entry, the tested form may be a part): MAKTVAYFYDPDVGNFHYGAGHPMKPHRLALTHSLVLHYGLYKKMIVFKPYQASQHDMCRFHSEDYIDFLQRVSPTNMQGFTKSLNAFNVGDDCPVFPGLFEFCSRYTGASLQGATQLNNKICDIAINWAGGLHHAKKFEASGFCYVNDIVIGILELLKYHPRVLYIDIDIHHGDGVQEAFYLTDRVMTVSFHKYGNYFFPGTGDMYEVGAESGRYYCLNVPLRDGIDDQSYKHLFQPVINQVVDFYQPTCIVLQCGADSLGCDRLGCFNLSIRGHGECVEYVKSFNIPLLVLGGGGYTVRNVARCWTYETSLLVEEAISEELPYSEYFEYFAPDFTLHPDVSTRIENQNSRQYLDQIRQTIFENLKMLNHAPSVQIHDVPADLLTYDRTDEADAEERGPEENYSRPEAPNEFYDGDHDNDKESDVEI
Histone deacetylase 1, sequence (Q13547 whole entry, the tested form may be a part): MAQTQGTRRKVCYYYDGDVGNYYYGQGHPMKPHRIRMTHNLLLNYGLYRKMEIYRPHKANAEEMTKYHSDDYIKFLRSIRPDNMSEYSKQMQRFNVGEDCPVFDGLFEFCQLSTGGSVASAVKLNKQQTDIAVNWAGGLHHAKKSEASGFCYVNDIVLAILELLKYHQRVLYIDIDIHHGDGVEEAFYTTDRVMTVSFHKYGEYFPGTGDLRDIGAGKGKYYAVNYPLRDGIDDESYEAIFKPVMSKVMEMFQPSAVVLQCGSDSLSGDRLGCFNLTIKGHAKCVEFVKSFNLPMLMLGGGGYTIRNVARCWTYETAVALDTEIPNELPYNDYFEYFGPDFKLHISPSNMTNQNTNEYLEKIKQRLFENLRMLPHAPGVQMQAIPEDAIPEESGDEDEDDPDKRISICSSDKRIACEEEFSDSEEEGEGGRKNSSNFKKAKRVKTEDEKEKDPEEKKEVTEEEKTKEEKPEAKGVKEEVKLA

`NC(=O)c1cccc2[nH]c(-c3ccc(NCc4ccc(C(=O)Nc5ccccc5N)cc4)cc3)nc12` gave an Activity (Histone deacetylase 1) of 73.9%, an Activity (Histone deacetylase 2 [1]) of 98.2% and an Activity (Histone deacetylase 2 [2]) of 98.2%. For the same compound, the Activity (Histone deacetylase 3) was 91.1%, the Activity [3] was 94.3% and the Activity [4] was 76.5%. For the same compound, the Activity [5] was 108%, the Activity [6] was 85% and the Activity [7] was 103%. For the same compound, the Activity [8] was 104%, the Activity [9] was 103% and the Activity (HL-60 [10]) was “Dose-Dependent Effect”. The Activity (HL-60 [11]) was “Active”, the Activity (HL-60 [12]) was “Active” and the Activity (HL-60 [13]) was “inactive”.
